# Results as given in patent publication US8785412B2, “Method for inducing cancer cell apoptosis or inhibiting the cancer cell migration” (National Tsing Hua University, priority 2011, dated 2014).
# Legend:
# hRPIA = assay: Western blot of hRPIA protein level after siRNA knockdown or pcDNA3-hRPIA transfection; type: cell-based, human; conditions: siRNA knockdown, 48 hours
# Hep3B liver cancer cells = assay: MTT cell viability assay, Hep3B; type: cell-based
# Source text: (§1) Further, we used 3-(4,5-dimethylthiazol-2-yl)-2,5-diphenyltetrazolium bromide (MTT) assay to examine whether the knockdown of hRPIA reduces cancer cell viability. […] A similar data was obtained in PLC5 and HepG2 (FIG. 3B and FIG. 3C respectively).
# (§2) Further, we used 3-(4,5-dimethylthiazol-2-yl)-2,5-diphenyltetrazolium bromide (MTT) assay to examine whether the over-expression of hRPIA in cancer cells induces cancer cell viability. […] A similar data was obtained in PLC5 and HepG2 (FIG. 7B and FIG. 7C respectively).
# (§3) To examine the influence of chemotherapeutic agents on cell growth of liver cancer cell after knocking down of hRPIA, we used specific siRNA to knockdown hRPIA expression and then added 5-fluorouracil (5-FU) by 0, 5, 15, 25 μg/mL into Hep3B, PLC5 and HepG2. Further, we used 3-(4,5-dimethylthiazol-2-yl)-2,5-diphenyltetrazolium bromide (MTT) assay to examine whether the over-expression of hRPIA in cancer cells induces cancer cell viability.
# PLC5 liver cancer cells = assay: MTT cell viability assay, PLC5; type: cell-based; conditions: PLC5, 5-FU 0, 5, 15, 25 μg/mL, vs si-negative control transfected cells
# Source text: as §1, §2, §3
# HepG2 liver cancer cells = assay: MTT cell viability assay, HepG2; type: cell-based; conditions: HepG2, 5-FU 0, 5, 15, 25 μg/mL, vs si-negative control transfected cells
# Source text: as §1, §2, §3
# SW480 colon cancer cells = assay: MTT cell viability assay, SW480; type: cell-based; conditions: for cell viability by MTT assay after hRPIA knockdown: SW480, 20 nM siRNA
# Source text: (§4) Further, we used 3-(4,5-dimethylthiazol-2-yl)-2,5-diphenyltetrazolium bromide (MTT) assay to examine whether the knockdown of hRPIA reduces cancer cell viability. […] A similar data was obtained in SW620 (FIG. 5B).
# (§5) Further, we used 3-(4,5-dimethylthiazol-2-yl)-2,5-diphenyltetrazolium bromide (MTT) assay to examine whether the over-expression of hRPIA in cancer cells induces cancer cell viability. […] A similar data was obtained in SW620 (FIG. 9B).
# as §3, with “colon” for “liver”, “knock down” for “knockdown”, “SW480” for “Hep3B, PLC5”, “SW620.” for “HepG2.”
# SW620 colon cancer cells = assay: MTT cell viability assay, SW620; type: cell-based
# Source text: as §4, §5
# as §3, with “colon” for “liver”, “knock down” for “knockdown”, “SW480” for “Hep3B, PLC5”, “SW620.” for “HepG2.”
# Hep3B = assay: Wound healing assay (cell motility), Hep3B; type: cell-based; conditions: Hep3B, 0, 18 and 24 hours
# Description: (§6) To examine whether the knockdown of hRPIA in cancer cells reduces cell motility, we used specific siRNA to knock down hRPIA expression. To quantify the cancer cell survival rate under the treatment of siRNA against hRPIA which sequence is: […] (SEQ NO. 1) and; […] (SEQ NO. 2) for 0, 18 and 24 hours, we perform wound healing assay to examine the cell motility of hRPIA in Hep3B which were treated with siRNA-hRPIA (cultured in 10% fetal bovine serum with DMEM in 37° C., 5% CO2 for 48 hours) as shown in FIG. 12 respectively. As shown in the figs, the cell motility is lower after adding siRNA.
# SW480 = assay: Wound healing assay (cell motility), SW480; type: cell-based; conditions: SW480, 0, 14 and 24 hours
# Description: as §6, with “hRPIA in colon cancer cells” for “hRPIA in cancer cells”, “for 0, 14 and 24” for “for 0, 18 and 24”, “hRPIA in SW480 which were” for “hRPIA in Hep3B which were”, “DMEM in 37 °C, 5% CO2” for “DMEM in 37° C., 5% CO2”, “in FIG. 13 respectively. As” for “in FIG. 12 respectively. As”
# caspase-3 = assay: Western blot of caspase-3 after hRPIA siRNA knockdown; type: cell-based
# Source text: (§7) To examine whether the knockdown of hRPIA in hepatic cancer cells induces cell apoptosis, we used specific siRNA which sequence is: […] (SEQ NO. 1) and; […] (SEQ NO. 2) to knock down hRPIA expression. Next, we used western blot to examine the protein level of caspase-3 and β-catenin. […] A similar data was obtained in PLC5 and HepG2 (FIG. 14B and FIG. 14C respectively).
# (§8) To examine whether the knockdown of hRPIA in colon cancer cells induces cell apoptosis, we used specific siRNA which sequence is: […] (SEQ NO. 1) and; […] ([…]) to knock down hRPIA expression. Next, we used western blot to examine the protein level of caspase-3 and β-catenin.
# β-catenin = assay: Western blot of β-catenin after hRPIA siRNA knockdown; type: cell-based
# Source text: as §7, §8
substance,measurement,setting,value
"siRNA-hRPIA: siRNA against hRPIA, sequence UUCACUUCACUCCAUUUGUGUACCC (SEQ NO. 1) and GGGUACACAAAUGGAGUGAAGUGAA (SEQ NO. 2) (listed as RNA, chemistry not given here)",hRPIA protein level (western blot),"hRPIA; Hep3B liver cancer cells, vs si-negative control",lower
same,hRPIA protein level (western blot),hRPIA; HepG2 liver cancer cells,lower
same,hRPIA protein level (western blot),"hRPIA; PLC5 liver cancer cells, vs si-negative control",lower
same,hRPIA protein level (western blot),hRPIA; SW480 colon cancer cells,lower
same,hRPIA protein level (western blot),hRPIA; SW620 colon cancer cells,lower
same,cell viability by MTT assay after hRPIA knockdown,Hep3B liver cancer cells; 20 nM siRNA,significant reduction in cell viability
same,cytotoxicity caused by 5-fluorouracil after hRPIA knockdown (MTT),"Hep3B liver cancer cells; 5-FU 0, 5, 15, 25 μg/mL, vs si-negative control transfected cells",significantly enhanced the cytotoxicity
same,cytotoxicity caused by 5-fluorouracil after hRPIA knockdown (MTT),PLC5 liver cancer cells,significantly enhanced the cytotoxicity
same,cytotoxicity caused by 5-fluorouracil after hRPIA knockdown (MTT),HepG2 liver cancer cells,significantly enhanced the cytotoxicity
same,cell viability by MTT assay after hRPIA knockdown,SW480 colon cancer cells,significant reduction in cell viability
same,cell viability by MTT assay after hRPIA knockdown,SW480 colon cancer cells; listed as siRNAs against hRPIA,significantly reduced cell viability
same,cytotoxicity caused by 5-fluorouracil after hRPIA knockdown (MTT),"SW480 colon cancer cells; SW480, 5-FU 0, 5, 15, 25 μg/mL, vs si-negative control transfected cells",significantly enhanced the cytotoxicity
same,cell viability by MTT assay after hRPIA knockdown,"SW620 colon cancer cells; SW620, 20 nM siRNA",significantly reduced cell viability
same,cytotoxicity caused by 5-fluorouracil after hRPIA knockdown (MTT),"SW620 colon cancer cells; SW620, 5-FU 0, 5, 15, 25 μg/mL, vs si-negative control transfected cells",significantly enhanced the cytotoxicity
same,cell motility (wound healing assay),Hep3B,lower
same,cell motility (wound healing assay),SW480,lower
same,caspase-3 protein level (western blot),"caspase-3; Hep3B, 48 hours",increased activity of caspase-3
same,caspase-3 protein level (western blot),caspase-3; HepG2,increases caspase-3 expression
same,caspase-3 protein level (western blot),caspase-3; PLC5,increases caspase-3 expression
same,caspase-3 protein level (western blot),"caspase-3; SW480, 48 hours",increased activity of caspase-3
same,β-catenin protein level (western blot),β-catenin; Hep3B,slightly reduction
same,β-catenin protein level (western blot),β-catenin; HepG2,significant reduction
same,β-catenin protein level (western blot),β-catenin; PLC5,slightly reduction
same,β-catenin protein level (western blot),β-catenin; SW480,significant reduction
